Data taken from patent publication US20080227815A1, “Crystal of Indole Derivative Having Piperidine Ring and Process for Production Thereof” (priority 2005, published 2008).
Where a name gives a salt, the structure may show the parent alone.

What was measured:
Rat 5-HT1A = target: T1, Rat 5-HT1A (Rattus norvegicus, UniProt P19327); experiment: Affinity for rat serotonin1A receptor ([3H]MPPF binding to rat hippocampal membrane fraction); conditions: pH 7.4, 25° C., 60 min, non-specific binding with 10 μM serotonin, Ki from IC50, tracer concentration and Kd (Scatchard)
T1 construct: A rat hippocampus sample was homogenized in a 50 mM Tris-HCl buffer; from tissue; host or cells: rat hippocampus (membrane fraction)
T1 sequence (P19327 1-422): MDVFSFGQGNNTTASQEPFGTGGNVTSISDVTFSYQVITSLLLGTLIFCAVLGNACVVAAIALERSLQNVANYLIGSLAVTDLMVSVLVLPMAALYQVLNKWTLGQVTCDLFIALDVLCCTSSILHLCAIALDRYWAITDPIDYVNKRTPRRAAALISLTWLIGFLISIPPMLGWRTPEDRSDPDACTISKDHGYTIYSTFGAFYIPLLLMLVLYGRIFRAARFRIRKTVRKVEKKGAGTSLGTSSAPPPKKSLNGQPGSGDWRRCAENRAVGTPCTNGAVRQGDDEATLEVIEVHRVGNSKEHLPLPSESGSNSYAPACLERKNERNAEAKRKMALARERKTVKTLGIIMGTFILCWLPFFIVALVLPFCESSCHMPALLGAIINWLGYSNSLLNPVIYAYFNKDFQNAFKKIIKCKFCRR
Experimental: Test Regarding Affinity for Rat Serotonin1A Receptor
An MPPF rat hippocampal membrane fraction selectively binding to the 5-HT1A receptor was used to test affinity of a test substance for the rat 5-HT1A receptor.
A rat hippocampus sample was homogenized in a 50 mM Tris-HCl buffer (pH 7.4; hereinafter referred to as “buffer A”) that had been cooled with ice. The suspension was centrifuged at 50,000×g for 20 minutes. The obtained sediment was suspended in buffer solution A, and the resultant solution was then centrifuged at 50,000×g for 20 minutes. The obtained sediment was suspended in buffer solution to obtain a rat hippocampus membrane fraction.
The mixture used for incubation contained an appropriate amount of membrane fraction, a test substance at a desired concentration, [^3H]MPPF, dimethyl sulfoxide and buffer A. The reaction was initiated through the addition of the membrane fraction, and the mixture was incubated at 25° C. for 60 minutes. After incubation, the mixture was subjected to vacuum filtration by passing through a glass filter using a Cell Harvester. The filter was washed 3 times with buffer solution A, and then radioactivity binding to the receptor was measured with a liquid scintillation counter. Non-specific binding was defined as binding detected in the presence of 10 μM serotonin. […]

urinary reflex = experiment: Inhibitory action against the increased urinary reflex action due to destruction of the superior colliculus in rats (cystometrogram); format: in vivo, rat (Sprague-Dawley; conditions: 1 mg/kg, i.v.; superior colliculus-lesioned female Sprague-Dawley rats; maximal reaction (Emax)
Description: In the present test, Sprague-Dawley female rats (200-350 g) were used. The rats underwent a median incision of the abdomen under anesthesia. A hole with a minor diameter was made on the apex of the bladder, and a catheter used for measurement of an intravesical pressure was placed therein. A catheter used for administration of a test substance was placed in the femoral vein. These catheters were fixed at the occipital region of the rat through the subcutis. One day later, the urinary reflex of the rats was measured with a cystometrogram. Thereafter, the rats were fixed on a brain stereotaxis apparatus under anesthesia, and then subjected to a median incision of the scalp. […] Electric current was then applied (65° C., 4 minutes) so as to damage the brain tissue. After completion of the operation, when the rat awoke from the anesthesia, cystometrogram was conducted again to confirm the increased state of urinary reflex. A test substance was administered through the catheter placed in the femoral vein, and the action of the test substance on urinary reflex was evaluated. In addition, the effects of several test substances were compared using the maximal reaction (Emax).

For CNC(=O)c1ccc2ccn(C3CCN(CCc4c(OC)ccc5c4OC(C)(C)CC5=O)CC3)c2c1 [Form D crystal form of fumarate, 1-{1-[2-(7-methoxy-2,2-dimethyl-4-oxochroman-8-yl)ethyl]piperidin-4-yl}-N-methyl-1H-indole-6-carboxamide fumarate (form D crystal)], the Ki (Rat 5-HT1A) was 0.045 nM and the “Urinary interval Emax” value (urinary reflex) was 75%.
